Laboratory results: patent US9549932B2, “2-(morpholin-4-yl)-1,7-naphthyridines” (BAYER PHARMA AKTIENGESELLSCHAFT, priority 2014, dated 2017)
pIC50: −log10 of the molar value. Counter-ions that a name gives are not always drawn.

biological target: full-length human ATR protein (Homo sapiens (Human), UniProt Q13535); assay: Binding assay ATR (TR-FRET tracer displacement); details: tracer A, TR-FRET; read-out: ATR binding (tracer A) IC50
From the text: To determine of binding activity of the test compounds, full-length human ATR protein was expressed and purified together with ATRIP as described above. Furthermore, a fluorescently labelled compound (either tracer A or B as described above) was used as a tracer molecule. Detection of the binding event of the tracer was achieved by time-resolved fluorescence energy transfer (TR-FRET). We used an anti-GST-Terbium antibody (CisBio) that binds to the GST-tag at the N-terminus of ATR-kinase. […] Displacement of the fluorescent tracer by a test compound leads to a reduction of the TR-FRET-signal.
For the assay 50 nl of a 100-fold concentrated solution of the test compound in DMSO was pipetted into a black low volume 384well microtiter plate (MTP, Greiner Bio-One, Frickenhausen, Germany). […] The ATR-working solution was incubated for 30 min at 22° C. prior to dispensing to pre-form the complex of antiGST-Tb+GST-ATR+ATRIP. Then, 3 μl of the ATR-working solution were added to the test compound and the mixture was incubated for 10 min at 22° C. to allow pre-binding of the test compounds to ATR/ATRIP. Then, 2 μl of a 100 nM solution of either tracer A or B in assay buffer were added to the ATR-working solution. The resulting mixture was incubated for 30 min at 22° C. […] The dilution series were prepared separately before the assay on the level of the 100 fold concentrated solutions in DMSO by serial 1:3.4 dilutions in duplicate values for each concentration. IC50 values were calculated by a 4 parameter fit using standard software (GraphPad prism or equivalent).

Sequence of full-length human ATR protein (Q13535 other isoform, or with tags, fused parts or gaps): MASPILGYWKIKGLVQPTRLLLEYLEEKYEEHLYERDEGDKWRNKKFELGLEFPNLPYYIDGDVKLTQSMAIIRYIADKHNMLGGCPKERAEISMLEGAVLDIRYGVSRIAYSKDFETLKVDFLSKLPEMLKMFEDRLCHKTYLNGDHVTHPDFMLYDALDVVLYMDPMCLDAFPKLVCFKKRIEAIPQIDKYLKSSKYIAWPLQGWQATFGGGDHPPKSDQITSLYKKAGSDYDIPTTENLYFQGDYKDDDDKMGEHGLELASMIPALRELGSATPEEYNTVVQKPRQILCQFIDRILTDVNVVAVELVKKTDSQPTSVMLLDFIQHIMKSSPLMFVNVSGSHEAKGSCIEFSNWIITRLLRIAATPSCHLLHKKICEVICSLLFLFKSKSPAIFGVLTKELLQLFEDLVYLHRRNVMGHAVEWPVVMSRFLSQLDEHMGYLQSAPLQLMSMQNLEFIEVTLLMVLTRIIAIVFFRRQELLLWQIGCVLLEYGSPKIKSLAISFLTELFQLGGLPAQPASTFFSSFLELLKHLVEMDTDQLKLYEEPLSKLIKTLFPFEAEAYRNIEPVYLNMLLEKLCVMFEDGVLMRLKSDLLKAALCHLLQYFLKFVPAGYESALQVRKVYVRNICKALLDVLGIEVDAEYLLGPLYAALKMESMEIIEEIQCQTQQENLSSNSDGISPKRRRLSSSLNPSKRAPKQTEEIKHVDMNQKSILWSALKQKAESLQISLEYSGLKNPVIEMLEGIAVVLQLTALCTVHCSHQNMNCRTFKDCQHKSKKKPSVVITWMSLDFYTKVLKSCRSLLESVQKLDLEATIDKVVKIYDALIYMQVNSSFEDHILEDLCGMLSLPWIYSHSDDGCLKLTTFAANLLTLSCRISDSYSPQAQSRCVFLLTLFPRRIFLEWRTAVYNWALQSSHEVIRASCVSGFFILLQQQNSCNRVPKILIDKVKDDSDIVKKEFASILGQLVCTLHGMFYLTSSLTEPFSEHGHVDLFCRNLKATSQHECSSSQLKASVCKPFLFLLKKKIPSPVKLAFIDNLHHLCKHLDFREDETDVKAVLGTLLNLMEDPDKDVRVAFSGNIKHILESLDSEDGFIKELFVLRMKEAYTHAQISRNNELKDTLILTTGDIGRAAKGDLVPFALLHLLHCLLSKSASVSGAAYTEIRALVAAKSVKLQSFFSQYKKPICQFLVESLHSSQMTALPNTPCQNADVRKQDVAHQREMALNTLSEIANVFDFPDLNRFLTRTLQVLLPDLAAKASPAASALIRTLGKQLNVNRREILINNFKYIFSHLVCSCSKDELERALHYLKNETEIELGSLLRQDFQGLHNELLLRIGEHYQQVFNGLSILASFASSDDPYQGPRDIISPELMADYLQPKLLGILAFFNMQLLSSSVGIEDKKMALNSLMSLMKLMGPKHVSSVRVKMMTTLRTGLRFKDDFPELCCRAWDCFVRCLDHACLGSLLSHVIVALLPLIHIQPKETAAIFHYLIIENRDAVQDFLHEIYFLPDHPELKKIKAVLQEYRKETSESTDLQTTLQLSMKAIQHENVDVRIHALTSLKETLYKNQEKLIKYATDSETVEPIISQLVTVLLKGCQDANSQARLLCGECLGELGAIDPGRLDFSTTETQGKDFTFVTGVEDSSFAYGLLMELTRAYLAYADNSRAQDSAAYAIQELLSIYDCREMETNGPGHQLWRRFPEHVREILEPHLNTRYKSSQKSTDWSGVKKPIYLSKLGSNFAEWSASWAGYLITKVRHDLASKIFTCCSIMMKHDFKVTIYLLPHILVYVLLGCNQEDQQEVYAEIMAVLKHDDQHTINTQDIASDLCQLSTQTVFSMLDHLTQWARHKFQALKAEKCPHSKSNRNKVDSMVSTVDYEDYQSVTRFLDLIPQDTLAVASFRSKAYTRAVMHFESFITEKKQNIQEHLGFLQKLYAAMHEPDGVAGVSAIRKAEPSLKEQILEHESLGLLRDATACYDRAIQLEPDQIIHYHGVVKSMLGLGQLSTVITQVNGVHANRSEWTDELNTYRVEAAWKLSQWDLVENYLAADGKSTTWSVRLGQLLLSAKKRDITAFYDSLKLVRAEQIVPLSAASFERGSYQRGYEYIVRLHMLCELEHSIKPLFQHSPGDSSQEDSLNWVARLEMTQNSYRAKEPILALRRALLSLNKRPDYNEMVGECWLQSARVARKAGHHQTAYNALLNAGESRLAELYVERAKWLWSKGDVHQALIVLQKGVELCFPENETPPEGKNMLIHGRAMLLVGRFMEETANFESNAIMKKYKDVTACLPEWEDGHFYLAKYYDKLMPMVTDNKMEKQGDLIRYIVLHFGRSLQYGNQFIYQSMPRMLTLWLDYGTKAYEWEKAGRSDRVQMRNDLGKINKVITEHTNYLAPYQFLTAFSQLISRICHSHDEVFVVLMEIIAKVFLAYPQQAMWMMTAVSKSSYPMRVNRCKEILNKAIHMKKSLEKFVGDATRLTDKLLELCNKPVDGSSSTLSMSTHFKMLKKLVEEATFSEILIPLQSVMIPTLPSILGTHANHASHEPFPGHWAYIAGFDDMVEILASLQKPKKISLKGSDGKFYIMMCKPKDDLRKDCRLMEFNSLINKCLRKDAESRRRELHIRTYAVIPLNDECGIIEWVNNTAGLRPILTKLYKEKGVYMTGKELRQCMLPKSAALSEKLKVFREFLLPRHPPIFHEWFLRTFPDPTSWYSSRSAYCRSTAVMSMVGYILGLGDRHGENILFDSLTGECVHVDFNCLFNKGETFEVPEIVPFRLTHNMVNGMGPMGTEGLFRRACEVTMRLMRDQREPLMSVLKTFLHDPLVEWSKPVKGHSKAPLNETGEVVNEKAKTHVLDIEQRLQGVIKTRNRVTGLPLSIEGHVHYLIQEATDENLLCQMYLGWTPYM
Sequence of full-length human ATR protein (Q8WXE1 other isoform, or with tags, fused parts or gaps partner): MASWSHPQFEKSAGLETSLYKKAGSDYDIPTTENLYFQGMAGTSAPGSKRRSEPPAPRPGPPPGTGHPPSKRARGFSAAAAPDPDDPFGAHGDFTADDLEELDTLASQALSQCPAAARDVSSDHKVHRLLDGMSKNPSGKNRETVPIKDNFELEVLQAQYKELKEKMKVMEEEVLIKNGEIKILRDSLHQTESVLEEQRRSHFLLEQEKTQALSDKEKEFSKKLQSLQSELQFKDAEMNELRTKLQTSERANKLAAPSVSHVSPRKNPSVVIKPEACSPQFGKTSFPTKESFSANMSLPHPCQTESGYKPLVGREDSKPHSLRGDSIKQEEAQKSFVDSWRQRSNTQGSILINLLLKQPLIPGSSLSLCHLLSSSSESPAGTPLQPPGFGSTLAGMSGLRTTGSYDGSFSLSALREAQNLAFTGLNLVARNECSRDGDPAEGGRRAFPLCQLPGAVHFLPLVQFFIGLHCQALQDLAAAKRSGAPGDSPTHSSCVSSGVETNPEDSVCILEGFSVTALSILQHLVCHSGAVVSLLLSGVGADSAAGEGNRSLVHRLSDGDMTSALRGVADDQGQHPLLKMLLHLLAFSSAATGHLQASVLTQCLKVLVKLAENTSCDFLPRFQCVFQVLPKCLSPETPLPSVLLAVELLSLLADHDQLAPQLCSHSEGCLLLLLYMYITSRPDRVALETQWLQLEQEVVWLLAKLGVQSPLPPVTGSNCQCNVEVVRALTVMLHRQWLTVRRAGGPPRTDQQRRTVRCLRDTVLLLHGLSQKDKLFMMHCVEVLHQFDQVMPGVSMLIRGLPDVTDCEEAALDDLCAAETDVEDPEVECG

Q: CN(C)c1ccccc1-c1cc(N2CCOCC2)nc2c(-c3ccn[nH]3)nccc12 [Example 321, N,N-dimethyl-2-[2-(morpholin-4-yl)-8-(1H-pyrazol-5-yl)-1,7-naphthyridin-4-yl]aniline] was tested. Which pIC50 did it give?
A: Its pIC50 is 7.35.

Q: How did the pIC50 turn out when c1cc2ccc(N3CCOCC3)nc2c(-c2cc[nH]n2)n1 [Example 61, 2-(morpholin-4-yl)-8-(1H-pyrazol-3-yl)-[1,7]naphthyridine hydrochloride] was run?
A: The pIC50 was 6.15.

Q: How did the pIC50 turn out when C[C@@H]1COCCN1c1cc(-c2cn(C)nc2C(F)(F)F)c2ccnc(-c3ccn[nH]3)c2n1 [Example 259, 2-[(3R)-3-methylmorpholin-4-yl]-4-[1-methyl-3-(trifluoromethyl)-1H-pyrazol-4-yl]-8-(1H-pyrazol-5-yl)-1,7-naphthyridine] was run?
A: Its pIC50 is 7.77.

Q: With CC(=O)Nc1ccccc1-c1cc(N2CCOC[C@H]2C)nc2c(-c3ccn[nH]3)nccc12 [Example 166, N-(2-{2-[(3R)-3-methylmorpholin-4-yl]-8-(1H-pyrazol-5-yl)-1,7-naphthyridin-4-yl}phenyl)acetamide] as the compound, how does the pIC50 read?
A: Its pIC50 is 6.44.

Q: How did the pIC50 turn out when COc1ccc2c(c1)cc(-c1cc(N3CCOCC3)nc3c(-c4ccn[nH]4)nccc13)n2C(=O)OC(C)(C)C [Example 368, tert-butyl 5-methoxy-2-[2-(morpholin-4-yl)-8-(1H-pyrazol-5-yl)-1,7-naphthyridin-4-yl]-1H-indole-1-carboxylate] was run?
A: The pIC50 was 5.40.

Q: With Clc1cccc(-c2cc(N3CCOCC3)nc3c(-c4ccn[nH]4)nccc23)c1 [Example 304, 4-(3-chlorophenyl)-2-(morpholin-4-yl)-8-(1H-pyrazol-5-yl)-1,7-naphthyridine] as the compound, how does the pIC50 read?
A: Its pIC50 is 7.24.

Q: How did the pIC50 turn out when Cc1ccnc(F)c1-c1cc(N2CCOC[C@H]2C)nc2c(-c3ccn[nH]3)nccc12 [Example 90, 4-(2-fluoro-4-methylpyridin-3-yl)-2-[(3R)-3-methylmorpholin-4-yl]-8-(1H-pyrazol-5-yl)-1,7-naphthyridine] was run?
A: The pIC50 was 7.97.

Q: Cc1noc(C)c1-c1cc(N2CCOCC2)nc2c(-c3ccn[nH]3)nccc12 [Example 379, 4-(3,5-dimethyl-1,2-oxazol-4-yl)-2-(morpholin-4-yl)-8-(1H-pyrazol-5-yl)-1,7-naphthyridine] was tested. Which pIC50 did it give?
A: Its pIC50 is 7.16.

Q: How did the pIC50 turn out when CC(C)COP(C)(=O)c1cc(N2CCOC[C@H]2C)nc2c(-c3ccn[nH]3)nccc12 (stereo partly drawn) [Example 127, Isobutyl methyl{2-[(3R)-3-methylmorpholin-4-yl]-8-(1H-pyrazol-5-yl)-1,7-naphthyridin-4-yl}phosphinate] was run?
A: Its pIC50 is 7.59.

Q: Cc1nn(C)cc1-c1cc(N2CCOCC2)nc2c(-c3ccn[nH]3)nccc12 [Example 271, 4-(1,3-dimethyl-1H-pyrazol-4-yl)-2-(morpholin-4-yl)-8-(1H-pyrazol-5-yl)-1,7-naphthyridine] was tested. Which pIC50 did it give?
A: Its pIC50 is 7.38.

Q: With FC(F)(F)c1ccc(-c2cc(N3CCOCC3)nc3c(-c4ccn[nH]4)nccc23)cc1 [Example 302, 2-(morpholin-4-yl)-8-(1H-pyrazol-5-yl)-4-[4-(trifluoromethyl)phenyl]-1,7-naphthyridine] as the compound, how does the pIC50 read?
A: The pIC50 was 6.73.

Q: C[C@@H]1COCCN1c1cc(-c2ccc(F)nc2F)c2ccnc(-c3ccn[nH]3)c2n1 [Example 228, 4-(2,6-difluoropyridin-3-yl)-2-[(3R)-3-methylmorpholin-4-yl]-8-(1H-pyrazol-5-yl)-1,7-naphthyridine] was tested. Which pIC50 did it give?
A: The pIC50 was 7.52.

Q: With C[C@@H]1COCCN1c1cc(P(C)(C)=O)c2ccnc(-c3ccn[nH]3)c2n1 [Example 142, 4-(dimethylphosphoryl)-2-[(3R)-3-methylmorpholin-4-yl]-8-(1H-pyrazol-5-yl)-1,7-naphthyridine] as the compound, how does the pIC50 read?
A: Its pIC50 is 7.36.

Q: With N#Cc1cc(N2CCOCC2)nc2c(-c3cc[nH]n3)nccc12 [Example 34, 2-(morpholin-4-yl)-8-(1H-pyrazol-3-yl)-[1,7]naphthyridine-4-carbonitrile] as the compound, how does the pIC50 read?
A: The pIC50 was 6.45.

Q: C[C@@H]1COCCN1c1cc(C2=CCNCC2)c2ccnc(-c3ccn[nH]3)c2n1 [Example 245, 2-[(3R)-3-methylmorpholin-4-yl]-8-(1H-pyrazol-5-yl)-4-(1,2,3,6-tetrahydropyridin-4-yl)-1,7-naphthyridine] was tested. Which pIC50 did it give?
A: The pIC50 was 7.49.

Q: OCC1CCN(c2cc(N3CCOCC3)nc3c(-c4ccn[nH]4)nccc23)CC1 [Example 429, {1-[2-(morpholin-4-yl)-8-(1H-pyrazol-5-yl)-1,7-naphthyridin-4-yl]piperidin-4-yl}methanol] was tested. Which pIC50 did it give?
A: The pIC50 was 7.35.

Q: With Fc1cncc(-c2cc(N3CCOCC3)nc3c(-c4ccn[nH]4)nccc23)c1 [Example 394, 4-(5-fluoropyridin-3-yl)-2-(morpholin-4-yl)-8-(1H-pyrazol-5-yl)-1,7-naphthyridine] as the compound, how does the pIC50 read?
A: Its pIC50 is 6.92.

Q: With C[C@@H]1COCCN1c1cc(-c2cc(C(F)(F)F)nn2C)c2ccnc(-c3ccn[nH]3)c2n1 [Example 98, 2-[(3R)-3-methylmorpholin-4-yl]-4-[1-methyl-3-(trifluoromethyl)-1H-pyrazol-5-yl]-8-(1H-pyrazol-5-yl)-1,7-naphthyridine] as the compound, how does the pIC50 read?
A: The pIC50 was 7.88.

Q: C[C@@H]1COCCN1c1cc(-c2ccn(C3CCOCC3)n2)c2ccnc(-c3ccn[nH]3)c2n1 [Example 246, 2-[(3R)-3-methylmorpholin-4-yl]-8-(1H-pyrazol-5-yl)-4-[1-(tetrahydro-2H-pyran-4-yl)-1H-pyrazol-3-yl]-1,7-naphthyridine] was tested. Which pIC50 did it give?
A: The pIC50 was 7.17.

Q: With C[C@@H]1COCCN1c1cc(N2CCOCC2)c2ccnc(-c3ccn[nH]3)c2n1 [Example 145, 2-[(3R)-3-methylmorpholin-4-yl]-4-(morpholin-4-yl)-8-(1H-pyrazol-5-yl)-1,7-naphthyridine] as the compound, how does the pIC50 read?
A: The pIC50 was 7.74.

Q: How did the pIC50 turn out when Cc1cn[nH]c1-c1cc(N2CCOC[C@H]2C)nc2c(-c3ccn[nH]3)nccc12 [Example 149, 2-[(3R)-3-methylmorpholin-4-yl]-4-(4-methyl-1H-pyrazol-5-yl)-8-(1H-pyrazol-5-yl)-1,7-naphthyridine] was run?
A: Its pIC50 is 7.32.

Q: How did the pIC50 turn out when C[C@@H]1COCCN1c1cc(-c2ccnn2CCF)c2ccnc(-c3ccn[nH]3)c2n1 [Example 159, 4-[1-(2-fluoroethyl)-1H-pyrazol-5-yl]-2-[(3R)-3-methylmorpholin-4-yl]-8-(1H-pyrazol-5-yl)-1,7-naphthyridine] was run?
A: Its pIC50 is 7.78.

Q: Fc1cccc(-c2cc(N3CCOCC3)nc3c(-c4ccn[nH]4)nccc23)c1 [Example 298, 4-(3-fluorophenyl)-2-(morpholin-4-yl)-8-(1H-pyrazol-5-yl)-1,7-naphthyridine] was tested. Which pIC50 did it give?
A: The pIC50 was 7.23.

Q: How did the pIC50 turn out when CS(=O)(=O)c1ccc(-c2cc(N3CCOCC3)nc3c(-c4cc[nH]n4)nccc23)cc1 [Example 7, 4-(4-methanesulphonylphenyl)-2-(morpholin-4-yl)-8-(1H-pyrazol-3-yl)-[1,7]naphthyridine] was run?
A: The pIC50 was 7.23.

Q: How did the pIC50 turn out when CN(c1cc(N2CCOCC2)nc2c(-c3ccn[nH]3)nccc12)C1CC1 [Example 435, N-cyclopropyl-N-methyl-2-(morpholin-4-yl)-8-(1H-pyrazol-5-yl)-1,7-naphthyridin-4-amine] was run?
A: Its pIC50 is 7.19.

Q: With Cc1n[nH]cc1-c1cc(N2CCOC[C@H]2C)nc2c(-c3ccn[nH]3)nccc12 [Example 266, 2-[(3R)-3-methylmorpholin-4-yl]-4-(3-methyl-1H-pyrazol-4-yl)-8-(1H-pyrazol-5-yl)-1,7-naphthyridine] as the compound, how does the pIC50 read?
A: The pIC50 was 8.08.

Q: With Cc1nc(F)ccc1-c1cc(N2CCOC[C@H]2C)nc2c(-c3ccn[nH]3)nccc12 [Example 97, 4-(6-fluoro-2-methylpyridin-3-yl)-2-[(3R)-3-methylmorpholin-4-yl]-8-(1H-pyrazol-5-yl)-1,7-naphthyridine] as the compound, how does the pIC50 read?
A: The pIC50 was 7.86.

Q: How did the pIC50 turn out when CS(=O)(=O)c1ccc(-c2cc(N3CCOCC3)nc3c(-c4ccn[nH]4)nccc23)cn1 [Example 3, 4-[6-(methylsulfonyl)pyridin-3-yl]-2-(morpholin-4-yl)-8-(1H-pyrazol-5-yl)-1,7-naphthyridine] was run?
A: The pIC50 was 7.24.

Q: With c1ccc(-c2cc(N3CCOCC3)nc3c(-c4cc[nH]n4)nccc23)cc1 [Example 11, 2-(morpholin-4-yl)-4-phenyl-8-(1H-pyrazol-3-yl)-[1,7]naphthyridine] as the compound, how does the pIC50 read?
A: Its pIC50 is 6.87.

Q: With COc1nccc(-c2cc(N3CCOC[C@H]3C)nc3c(-c4ccn[nH]4)nccc23)c1Cl [Example 106, 4-(3-chloro-2-methoxypyridin-4-yl)-2-[(3R)-3-methylmorpholin-4-yl]-8-(1H-pyrazol-5-yl)-1,7-napthyridine] as the compound, how does the pIC50 read?
A: Its pIC50 is 7.88.

Q: c1cc(-c2nccc3c(OCC4CCCO4)cc(N4CCOCC4)nc23)[nH]n1 (centres unmarked) [Example 46, 2-(morpholin-4-yl)-8-(1H-pyrazol-5-yl)-4-(tetrahydrofuran-2-ylmethoxy)-1,7-naphthyridine] was tested. Which pIC50 did it give?
A: The pIC50 was 6.58.

Q: How did the pIC50 turn out when Cc1cnn(C)c1-c1cc(N2CCOC[C@H]2C)nc2c(-c3ccn[nH]3)nccc12 [Example 114, 4-(1,4-dimethyl-1H-pyrazol-5-yl)-2-[(3R)-3-methylmorpholin-4-yl]-8-(1H-pyrazol-5-yl)-1,7-naphthyridine] was run?
A: Its pIC50 is 8.13.

Q: With CN(C)C(=O)c1ccc(-c2cc(N3CCOCC3)nc3c(-c4ccn[nH]4)nccc23)cc1 [Example 324, N,N-dimethyl-4-[2-(morpholin-4-yl)-8-(1H-pyrazol-5-yl)-1,7-naphthyridin-4-yl]benzamide] as the compound, how does the pIC50 read?
A: The pIC50 was 7.11.

same assay, conditions: tracer B, TR-FRET; read-out: ATR binding (tracer B) IC50

Q: c1cc2ccc(N3CCOCC3)nc2c(-c2cc[nH]n2)n1 [Example 61, 2-(morpholin-4-yl)-8-(1H-pyrazol-3-yl)-[1,7]naphthyridine hydrochloride] was tested. Which pIC50 did it give?
A: The pIC50 was 6.30.

Q: N#Cc1cc(N2CCOCC2)nc2c(-c3cc[nH]n3)nccc12 [Example 34, 2-(morpholin-4-yl)-8-(1H-pyrazol-3-yl)-[1,7]naphthyridine-4-carbonitrile] was tested. Which pIC50 did it give?
A: Its pIC50 is 6.27.

Q: With CS(=O)(=O)c1ccc(-c2cc(N3CCOCC3)nc3c(-c4cc[nH]n4)nccc23)cc1 [Example 7, 4-(4-methanesulphonylphenyl)-2-(morpholin-4-yl)-8-(1H-pyrazol-3-yl)-[1,7]naphthyridine] as the compound, how does the pIC50 read?
A: The pIC50 was 7.58.

Q: CS(=O)(=O)c1ccc(-c2cc(N3CCOCC3)nc3c(-c4ccn[nH]4)nccc23)cn1 [Example 3, 4-[6-(methylsulfonyl)pyridin-3-yl]-2-(morpholin-4-yl)-8-(1H-pyrazol-5-yl)-1,7-naphthyridine] was tested. Which pIC50 did it give?
A: Its pIC50 is 7.41.

Q: With c1ccc(-c2cc(N3CCOCC3)nc3c(-c4cc[nH]n4)nccc23)cc1 [Example 11, 2-(morpholin-4-yl)-4-phenyl-8-(1H-pyrazol-3-yl)-[1,7]naphthyridine] as the compound, how does the pIC50 read?
A: The pIC50 was 7.06.
